Starred links: 1 amine or outer side, 2 acyl side, 3 side chain; linkers in the order of their positions; H or OH if unused. Positions of bridges follow the written chain, without caps; N, C: chain ends. Non-standard residues stand in square brackets, D forms with d. Residues, ends and D or L forms follow the SMILES beside them. Chains are numbered I, II in the order given. *: point of attachment. isoGln = NC(=O)[C@H](CCC(=O)[*:2])N[*:1]; d(εLys) = N[C@H](CCCCN[*:1])C(=O)[*:2]; εLys = N[C@@H](CCCCN[*:1])C(=O)[*:2]; Aad = N[C@@H](CCCC(=O)O)C(=O)O; Cit = NC(=O)NCCC[C@H](N)C(=O)O; Heptanoyl = CCCCCCC(=O)*; Orn = NCCC[C@H](N)C(=O)O; Dab = NCC[C@H](N)C(=O)O; PhAc = O=C(Cc1ccccc1)*
Target: T1, human V1aR (Homo sapiens, UniProt P37288)
T1 construct: expressed in transfected cells
Test: Agonist activity at vasopressin V1a receptors, cell-based FLIPR calcium assay
Conditions: for Emax: read-out: Efficacy Avg. (%)
Method: Efficacy (% MPE) is also determined as the percentage of maximal possible effect. This agonist assay utilizes cells from a stable cell line (HEK-flpin) expressing the vasopressin V1a receptor. Intracellular calcium increase in response to agonist is measured through real-time fluorescence of an intracellular calcium-sensitive dye. Cells are exposed to varying concentrations of test agonist compounds whereupon release of intracellular calcium is measured to determine the agonist potency and efficacy.
The cell line stably expresses the lacZ-Zeocin™ fusion gene and is designed for use with the Flp-In™ expression vector containing the gene of interest and the Flp recombinase expression plasmid, pOG44. The cell line contains a single integrated Flp Recombination Target (FRT) site from pFRT/lacZeo or pFRT/lacZeo2. To generate the HEK-flpin cell line stably expressing the human V1aR, the cells were co-transfected with the Flp-In™ expression vector containing the gene of interest (pcDNA5/FRT-hV1aR) and the Flp recombinase expression plasmid pOG44. Flp recombinase mediates insertion of the Flp-In™ expression vector into the genome at the integrated FRT site through site-specific DNA recombination. Stable cell lines expressing the hV1aR from the Flp-In™ expression vector can be generated by selection using hygromycin B. See Life Technologies/Invitrogen manual, Growth and Maintenance of Flp-In™ Cell Lines, Version E, published Feb.
Efficacy of this compound was set to be 100%. A stock solution of 5 mM was made up in DMSO and stored at −20° C.
HEK-flpin-hV1aR, cmcqV1aR, dV1aR and pV1aR cells were maintained in DMEM containing 10% (v/v) FBS-HI, 4 mM GlutaMAX™-I, 25 μg/mL Hygromycin B at 37° C. under 5% CO2 in a humidified atmosphere. Subculture was achieved by splitting semi-confluent cultures 1:3 to 1:6.
All compounds were made up in 100% DMSO at 10 mM stock concentrations and stored at −20° C. The compounds were allowed to thaw just before the assay. […] Typical dilution procedure of 10× final assay concentration involved a 1:100 top dilution (e.g., 2 μl Stock into 198 μl dilution medium) followed by half-log serial dilutions (e.g., 25.3 μl into 54.7 μl dilution medium supplemented with 1% DMSO (v/v)). (Dilution media consisted of phenol-red free DMEM containing 10% FBS-HI, 4 mM GlutaMAX™-I). […] The final DMSO concentration in the assay was 0.1%.
Loading Buffer was prepared by dissolving 1 vial of Calcium 4 Assay reagent in 100 mL of 1× HBSS-20 mM Hepes buffer.
The cells were loaded with Loading Buffer as follows. Cell plates were removed from the incubator and 20 μl of Loading Buffer containing probenecid (2.5 mM) was added to each well. The cells were incubated for 1 hr at 37° C. under 5% CO2 in a humidified atmosphere. The calcium image was obtained as follows.
The cell plates were transferred to FLIPR Tetra, along with a 384 well V-bottom plate pre-loaded with half-log concentrations of test compounds at 10× final test concentrations. The remaining steps of the assay were carried forward by FLIPR Tetra. A baseline reading was taken at 1-second (s) intervals for 5s followed by the addition of 5 μl of 10× compounds (test, reference, or Blank). The agonist-induced fluorescence signal was then measured for 180 s with initial 120 readings at 1-second intervals followed by 20 readings at 3-second intervals. Overall, each well in the FLIPR assay was composed of the following components in a total volume of 50 μl: 20 μl cells; 20 μl Calcium 4 Loading Buffer; […] 10× test or reference compound.

T1 sequence (P37288 whole entry): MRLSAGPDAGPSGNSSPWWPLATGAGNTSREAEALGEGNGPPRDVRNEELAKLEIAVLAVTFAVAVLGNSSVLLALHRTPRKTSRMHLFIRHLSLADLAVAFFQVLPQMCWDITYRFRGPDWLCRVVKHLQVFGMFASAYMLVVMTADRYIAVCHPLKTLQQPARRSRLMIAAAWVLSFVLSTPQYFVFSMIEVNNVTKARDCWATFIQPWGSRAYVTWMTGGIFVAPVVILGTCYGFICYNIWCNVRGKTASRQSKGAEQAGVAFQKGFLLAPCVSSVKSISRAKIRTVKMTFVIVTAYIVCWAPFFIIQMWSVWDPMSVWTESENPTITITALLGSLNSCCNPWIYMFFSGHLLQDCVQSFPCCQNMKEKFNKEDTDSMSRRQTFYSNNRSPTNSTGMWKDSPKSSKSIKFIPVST

## CCCCCCC(=O)NCCCC[C@H](NC(=O)CC[C@H](NC(=O)[C@H](CCCNC(=N)N)NC(=O)[C@@H]1CCCN1C(=O)[C@H](C)NC(=O)[C@H](CC(N)=O)NC(=O)[C@H](CCC(N)=O)NC(=O)[C@H](Cc1ccccc1)NC(=O)[C@@H](Cc1ccc(OC)cc1)NC(=O)Cc1ccccc1)C(N)=O)C(=O)NCCCC[C@H](N)C(=O)NCC[C@H](NC(=O)[C@@H]1CCCN1C(=O)[C@@H]1CSSC[C@H](N)C(=O)N[C@@H](Cc2ccccc2)C(=O)N[C@@H]([C@@H](C)CC)C(=O)N[C@@H](CCC(N)=O)C(=O)N[C@@H](CC(N)=O)C(=O)N1)C(=O)NCC(N)=O [Compound 43] (I: H-CFIQNCP[Dab]G-NH2 / II: PhAc-[dY](Me)FQNAPR[isoGln]K(Heptanoyl)[εLys]; disulfide I:1-I:6; amide I:8-II:C)
  EC50: 1.4 nM
  Emax: 59%

## CC[C@H](C)[C@@H]1NC(=O)[C@H](Cc2ccccc2)NC(=O)[C@@H](N)CSSC[C@@H](C(=O)N2CCC[C@H]2C(=O)N[C@@H](CCNC(=O)[C@H](N)CCCCNC(=O)CC[C@H](NC(=O)[C@H](CCCNC(=N)N)NC(=O)[C@@H]2CCCN2C(=O)[C@H](CCCNC(N)=O)NC(=O)[C@H](CC(N)=O)NC(=O)[C@H](CCC(N)=O)NC(=O)[C@H](Cc2ccccc2)NC(=O)[C@@H](Cc2ccc(OC)cc2)NC(=O)Cc2ccccc2)C(N)=O)C(=O)NCC(N)=O)NC(=O)[C@H](CC(N)=O)NC(=O)[C@H](CCCC(N)=O)NC1=O [Compound 52] (I: H-CFI[Aad](NH2)NCP[Dab]G-NH2 / II: PhAc-[dY](Me)FQN[Cit]PR[isoGln][d(εLys)]; disulfide I:1-I:6; amide I:8-II:C)
  EC50: 1.5 nM
  Emax: 47%

## CC[C@H](C)[C@@H]1NC(=O)[C@H](Cc2ccccc2)NC(=O)[C@@H](N)CSSC[C@@H](C(=O)N2CCC[C@H]2C(=O)N[C@@H](CCNC(=O)[C@@H](N)CCCCNC(=O)CC[C@H](NC(=O)[C@H](CCCNC(=N)N)NC(=O)[C@@H]2CCCN2C(=O)[C@H](C)NC(=O)[C@H](CC(N)=O)NC(=O)[C@H](CCC(N)=O)NC(=O)[C@H](Cc2ccccc2)NC(=O)[C@@H](Cc2ccc(OC)cc2)NC(=O)Cc2ccccc2)C(N)=O)C(=O)NCC(N)=O)NC(=O)[C@H](CC(N)=O)NC(=O)[C@H](CCCC(N)=O)NC1=O [Compound 50] (I: H-CFI[Aad](NH2)NCP[Dab]G-NH2 / II: PhAc-[dY](Me)FQNAPR[isoGln][εLys]; disulfide I:1-I:6; amide I:8-II:C)
  EC50: 0.9 nM
  Emax: 40%

## CC[C@H](C)[C@@H]1NC(=O)[C@H](Cc2ccccc2)NC(=O)[C@@H](N)CSSC[C@@H](C(=O)N2CCC[C@H]2C(=O)N[C@@H](CCNC(=O)[C@H](N)CCCCNC(=O)CC[C@H](NC(=O)[C@H](CCCNC(=N)N)NC(=O)[C@@H]2CCCN2C(=O)[C@H](CCN)NC(=O)[C@H](CC(N)=O)NC(=O)[C@H](CCC(N)=O)NC(=O)[C@H](Cc2ccccc2)NC(=O)[C@@H](Cc2ccc(OC)cc2)NC(=O)Cc2ccccc2)C(N)=O)C(=O)NCC(N)=O)NC(=O)[C@H](CC(N)=O)NC(=O)[C@H](CC(N)=O)NC1=O [Compound 59] (I: H-CFINNCP[Dab]G-NH2 / II: PhAc-[dY](Me)FQN[Dab]PR[isoGln][d(εLys)]; disulfide I:1-I:6; amide I:8-II:C)
  Emax: 26%

## CC[C@H](C)[C@@H]1NC(=O)[C@H](Cc2ccccc2)NC(=O)[C@@H](O)CSSC[C@@H](C(=O)N2CCC[C@H]2C(=O)N[C@@H](CCNC(=O)[C@@H](N)CCCCNC(=O)CC[C@H](NC(=O)[C@H](CCCNC(=N)N)NC(=O)[C@@H]2CCCN2C(=O)[C@H](CCCCN)NC(=O)[C@H](CC(N)=O)NC(=O)[C@H](CCC(N)=O)NC(=O)[C@H](Cc2ccccc2)NC(=O)[C@@H](Cc2ccc(OC)cc2)NC(=O)Cc2ccccc2)C(N)=O)C(=O)NCC(N)=O)NC(=O)[C@H](CC(N)=O)NC(=O)[C@H](CCC(N)=O)NC1=O [Compound 32]
  EC50: 1 nM
  Emax: 56%

## CC[C@H](C)[C@@H]1NC(=O)[C@H](Cc2ccccc2)NC(=O)[C@@H](N)CSSC[C@@H](C(=O)N2CCC[C@H]2C(=O)N[C@@H](CCCNC(=O)[C@@H](N)CCCCNC(=O)CC[C@H](NC(=O)[C@H](CCCNC(=N)N)NC(=O)[C@@H]2CCCN2C(=O)[C@H](C)NC(=O)[C@H](CC(N)=O)NC(=O)[C@H](CCC(N)=O)NC(=O)[C@H](Cc2ccccc2)NC(=O)[C@@H](Cc2ccc(OC)cc2)NC(=O)Cc2ccccc2)C(N)=O)C(=O)NCC(N)=O)NC(=O)[C@H](CC(N)=O)NC(=O)[C@H](CCC(N)=O)NC1=O [Compound 28] (I: H-CFIQNCP[Orn]G-NH2 / II: PhAc-[dY](Me)FQNAPR[isoGln][εLys]; disulfide I:1-I:6; amide I:8-II:C)
  EC50: 1.2 nM
  Emax: 44%

## CC[C@H](C)[C@@H]1NC(=O)[C@H](Cc2ccccc2)NC(=O)[C@@H](N)CSSC[C@@H](C(=O)N2CCC[C@H]2C(=O)N[C@@H](CCCNCCCCCCNC(=O)CC[C@H](NC(=O)[C@H](CCCNC(=N)N)NC(=O)[C@@H]2CCCN2C(=O)[C@H](C)NC(=O)[C@H](CC(N)=O)NC(=O)[C@H](CCC(N)=O)NC(=O)[C@H](Cc2ccccc2)NC(=O)[C@@H](Cc2ccc(OC)cc2)NC(=O)Cc2ccccc2)C(N)=O)C(=O)NCC(N)=O)NC(=O)[C@H](CC(N)=O)NC(=O)[C@H](CCC(N)=O)NC1=O [Compound 4]
  EC50: 1.5 nM
  Emax: 24%

## CC[C@H](C)[C@@H]1NC(=O)[C@H](Cc2ccccc2)NC(=O)[C@@H](N)CSSC[C@@H](C(=O)N2CCC[C@H]2C(=O)N[C@@H](CCNC(=O)[C@H](N)CCCCNC(=O)CC[C@H](NC(=O)[C@H](CCCNC(=N)N)NC(=O)[C@@H]2CCCN2C(=O)[C@H](CCC(N)=O)NC(=O)[C@H](CC(N)=O)NC(=O)[C@H](CCC(N)=O)NC(=O)[C@H](Cc2ccccc2)NC(=O)[C@@H](Cc2ccc(OC)cc2)NC(=O)Cc2ccccc2)C(N)=O)C(=O)NCC(N)=O)NC(=O)[C@H](CC(N)=O)NC(=O)[C@H](CCCC(N)=O)NC1=O [Compound 61] (I: H-CFI[Aad](NH2)NCP[Dab]G-NH2 / II: PhAc-[dY](Me)FQNQPR[isoGln][d(εLys)]; disulfide I:1-I:6; amide I:8-II:C)
  EC50: 2.5 nM
  Emax: 38%

## CC[C@H](C)[C@@H]1NC(=O)[C@H](Cc2ccccc2)NC(=O)[C@@H](N)CSSC[C@@H](C(=O)N2CCC[C@H]2C(=O)N[C@@H](CCNC(=O)[C@@H](N)CCCCNC(=O)CC[C@H](NC(=O)[C@H](CCCNC(=N)N)NC(=O)[C@@H]2CCCN2C(=O)[C@H](C)NC(=O)[C@H](CC(N)=O)NC(=O)[C@H](CCC(N)=O)NC(=O)[C@H](Cc2ccccc2)NC(=O)[C@@H](Cc2ccc(OC)cc2)NC(=O)Cc2ccccc2)C(N)=O)C(=O)NCC(N)=O)NC(=O)[C@H](CC(N)=O)NC(=O)[C@H](CCC(N)=O)NC1=O [Compound 18] (I: H-CFIQNCP[Dab]G-NH2 / II: PhAc-[dY](Me)FQNAPR[isoGln][εLys]; disulfide I:1-I:6; amide I:8-II:C)
  EC50: 3.9 nM
  Emax: 49%

## CC[C@H](C)[C@@H]1NC(=O)[C@H](Cc2ccccc2)NC(=O)[C@@H](N)CSSC[C@@H](C(=O)N2CCC[C@H]2C(=O)N[C@@H](CCNC(=O)[C@H](N)CCCCNC(=O)CC[C@H](NC(=O)[C@H](CCCNC(=N)N)NC(=O)[C@@H]2CCCN2C(=O)[C@H](C)NC(=O)[C@H](CC(N)=O)NC(=O)[C@H](CCC(N)=O)NC(=O)[C@H](Cc2ccccc2)NC(=O)[C@@H](Cc2ccc(OC)cc2)NC(=O)Cc2ccccc2)C(N)=O)C(=O)NCC(N)=O)NC(=O)[C@H](CC(N)=O)NC(=O)[C@H](CCCC(N)=O)NC1=O [Compound 51] (I: H-CFI[Aad](NH2)NCP[Dab]G-NH2 / II: PhAc-[dY](Me)FQNAPR[isoGln][d(εLys)]; disulfide I:1-I:6; amide I:8-II:C)
  EC50: 1.4 nM
  Emax: 43%
